One assay concerns Nrf2. Description: Nrf2 Western blot in bEnd.3 cells. As to conditions: lipoic acid 1 mM alone; FIG. 9. The class given is cell-based, mouse.
For a further assay, the system named is DS lymphocytes. Briefly: AP39 challenge of DS lymphocytes. It counts as cell-based, human. As to conditions: DS cells; 5 μM AP39; p<0.05; FIG. 10.
Another assay concerns AHI lymphocytes. Briefly: AP39 challenge of AHI lymphocytes. The class given is cell-based, human. As to conditions: AHI cells; 5 μM AP39; p<0.05; FIG. 10.

Source text for AHI lymphocytes: (§1) Age-matched and sex-matched DS-donor and apparently healthy individual (AHI) lymphocytes (Coriell Institute, Camden, NJ) are used as a human model of DS.
Source text for DS lymphocytes: as §1
Procedure for Nrf2: Culture of bEnd.3 Cells for Nrf2 Study—Mouse brain endothelial (b.End3) cells are grown and maintained in DMEM supplemented with 10% fetal bovine serum and 1% penicillin streptomycin. Once cells reach 90% confluence, cells are split in a 1-to-5 ratio.
Treatment of bEnd.3 Cells for Nrf2 Study—b.End3 cells are seeded on 10-cm petri dishes. On day 4, half of the old media is discarded and replaced with fresh media.
Nrf2 Western blotting—Cell extraction is performed using Cell Lysis Buffer and the provided protocol (ThermoFisher #FNN0011). Proteins are quantified using Bradford assay (Thermofisher #1863028). Same amounts of proteins of each lysate (20 μg) are loaded on an SDS-PAGE gel under reducing conditions (unless stated otherwise). Membrane transfer is done overnight (about 18 hours) in cold room and blocked with 5% dry milk/TBST the next day. Subsequently, the membrane is incubated with primary antibodies overnight (about 18 hours) and with secondary antibodies for an hour in blocking solution. Signals are developed with ECL (ThermoFisher #A43840) and captured with ChemiDoc™ Imaging System.

In the case of `O=C(O)CCCC[C@@H]1CCSS1` (racemic) [lipoic acid], the “Nrf2 signal (Western blot)” value in the assay with Nrf2 was “some small increases in signal”.

For the molecule `O=C(CCCCCCCCC[P+](c1ccccc1)(c1ccccc1)c1ccccc1)Oc1ccc(-c2cc(=S)ss2)cc1.[Br-]` [AP39], the cell proliferation entry in the assay on DS lymphocytes and in the assay on AHI lymphocytes was “reduced” each time. In the assay with DS lymphocytes, the “viability versus untreated control” value is “significant reduction in viability”.
